Reference: patent publication US7473790B2 (Pfizer Inc., priority 2003, dated 2009)

The molecules below were run against T1, HCV polymerase (Hepatitis C virus genotype 1b, UniProt P26663) (assay: HCV polymerase primer/template-directed transcription assay (32P-GTP incorporation, filter binding)). Details: @ 20 uM compound; given where IC50 was impractical to calculate; read-out: percent inhibition.
T1 construct: 2.5 pmoles (0.15 μg) HCV polymerase protein in a final volume of 75 μL
T1 sequence (P26663 2420-3010): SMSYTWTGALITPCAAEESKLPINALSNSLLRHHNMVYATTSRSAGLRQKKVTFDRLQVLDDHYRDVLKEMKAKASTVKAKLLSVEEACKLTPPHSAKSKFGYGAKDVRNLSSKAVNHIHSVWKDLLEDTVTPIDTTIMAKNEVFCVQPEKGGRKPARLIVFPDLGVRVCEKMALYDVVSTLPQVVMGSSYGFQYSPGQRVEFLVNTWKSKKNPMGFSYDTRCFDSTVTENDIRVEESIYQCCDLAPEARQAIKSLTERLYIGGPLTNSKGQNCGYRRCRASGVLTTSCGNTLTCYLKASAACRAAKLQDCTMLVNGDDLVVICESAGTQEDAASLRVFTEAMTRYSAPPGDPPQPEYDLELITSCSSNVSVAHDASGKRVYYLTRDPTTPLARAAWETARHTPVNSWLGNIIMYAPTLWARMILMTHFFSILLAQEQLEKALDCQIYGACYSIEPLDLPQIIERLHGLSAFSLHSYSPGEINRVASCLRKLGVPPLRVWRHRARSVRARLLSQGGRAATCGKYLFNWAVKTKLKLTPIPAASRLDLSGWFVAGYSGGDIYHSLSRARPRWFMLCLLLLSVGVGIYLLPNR
Assay type: biochemical
Method in brief: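 Recombinant genotype 1b polymerase (30 nM) extended biotin-dG12 primer on poly(rC)300 template with 1 μM GTP plus α-32P-GTP, pH 7.2, 10 mM MgCl2, 30 min at 30° C, 1% DMSO final. Products captured on DE filters and counted. IC50 fitted from triplicate cpm, with a tight-binding correction applied below 200 nM.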
For `COC(=O)Cc1cccc(CCC2(C3CCCC3)CC(=O)CC(=O)O2)c1` (stereo not shown) [A(67), {3-[2-(2-Cyclopentyl-4,6-dioxo-tetrahydro-pyran-2-yl)-ethyl]-phenyl}-acetic acid methyl ester], the inhibition at 20 µM was 24%.
`O=C1CC(=O)OC(CCc2ccccn2)(C2CCCC2)C1` (stereo not shown) [A(82), 6-Cyclopentyl-6-(2-pyridin-2-yl-ethyl)-dihydro-pyran-2,4-dione] showed an inhibition at 20 µM of 11%.

Same assay, conditions: IC50, recombinant HCV polymerase; 30 minutes at 30° C.; concentration giving 50% inhibition of polymerase-directed transcription
`CC(C)(C#N)c1ccc(CCC2(C3CCCC3)CC(=O)CC(=O)O2)cc1F` (stereo not shown) [A(81), 2-{4-[2-(2-Cyclopentyl-4,6-dioxo-tetrahydro-pyran-2-yl)-ethyl]-2-fluoro-phenyl}-2-methyl-propionitrile] gave an IC50 of 140 nM.

Same assay, conditions: recombinant HCV polymerase; 30 minutes at 30° C.; concentration giving 50% inhibition of polymerase-directed transcription; read-out: IC50
Molecule `CC(C)c1ccc(CCC2(C3CCCC3)CC(=O)CC(=O)O2)cc1Cl` (stereo not shown) [A(63), 6-[2-(3-chloro-4-isopropylphenyl)ethyl]-6-cyclopentyldihydro-2H-pyran-2,4(3H)-dione] has an IC50 of 11000 nM.
`CC(C)c1ccc(CCC2(C3CCCC3)CC(=O)CC(=O)O2)cc1F` (stereo not shown) [A(64), 6-cyclopentyl-6-[2-(3-fluoro-4-isopropylphenyl)ethyl]dihydro-2H-pyran-2,4(3H)-dione] was tested, and the IC50 was 4000 nM.
`CCc1cc(CCC2(C3CCCC3)CC(=O)CC(=O)O2)ccc1F` (stereo not shown) [A(65), 6-cyclopentyl-6-[2-(3-ethyl-4-fluorophenyl)ethyl]dihydro-2H-pyran-2,4(3H)-dione] gave an IC50 of 1300 nM.
`CCc1cccc(CCC2(C3CCCC3)CC(=O)CC(=O)O2)c1` (stereo not shown) [A(66), 6-Cyclopentyl-6-[2-(3-ethyl-phenyl)-ethyl]-dihydro-pyran-2,4-dione] was tested, and the IC50 was 3600 nM.
`CC1(C)C(=O)Oc2ccc(CCC3(C4CCCC4)CC(=O)CC(=O)O3)cc21` (stereo not shown) [A(68), 6-Cyclopentyl-6-[2-(3,3-dimethyl-2-oxo-2,3-dihydro-benzofuran-5-yl)-ethyl]-dihydro-pyran-2,4-dione] showed an IC50 of 3400 nM.
With `COC(=O)C1(c2cccc(CCC3(C4CCCC4)CC(=O)CC(=O)O3)c2)CC1` (stereo not shown) [A(69), 1-{3-[2-(2-Cyclopentyl-4,6-dioxo-tetrahydro-pyran-2-yl)-ethyl]-phenyl}-cyclopropanecarboxylic acid methyl ester] the IC50 was 9900 nM.
Molecule `N#CCc1cccc(CCC2(C3CCCC3)CC(=O)CC(=O)O2)c1` (stereo not shown) [A(70), {3-[2-(2-Cyclopentyl-4,6-dioxo-tetrahydro-pyran-2-yl)-ethyl]-phenyl}-acetonitrile] has an IC50 of 9400 nM.
With `CC(C)(CNC(=O)c1cc[nH]n1)c1cccc(CCC2(C3CCCC3)CC(=O)CC(=O)O2)c1` (stereo not shown) [A(71), 1H-Pyrazole-3-carboxylic acid (2-{3-[2-(2-cyclopentyl-4,6-dioxo-tetrahydro-pyran-2-yl)-ethyl]-phenyl}-2-methyl-propyl)-amide] the IC50 was 1900 nM.
For `CC(C)(CNC(=O)CCc1ccco1)c1cccc(CCC2(C3CCCC3)CC(=O)CC(=O)O2)c1` (stereo not shown) [A(72), N-(2-{3-[2-(2-Cyclopentyl-4,6-dioxo-tetrahydro-pyran-2-yl)-ethyl]-phenyl}-2-methyl-propyl)-3-furan-2-yl-propionamide], the IC50 was 1500 nM.
`Cc1cc(C(=O)NCC(C)(C)c2cccc(CCC3(C4CCCC4)CC(=O)CC(=O)O3)c2)oc1C` (stereo not shown) [A(73), 4,5-Dimethyl-furan-2-carboxylic acid (2-{3-[2-(2-cyclopentyl-4,6-dioxo-tetrahydro-pyran-2-yl)-ethyl]-phenyl}-2-methyl-propyl)-amide] showed an IC50 of 3300 nM.
Molecule `CC(C)(CNC(=O)c1cnc(O)cn1)c1cccc(CCC2(C3CCCC3)CC(=O)CC(=O)O2)c1` (stereo not shown) [A(74), 5-Hydroxy-pyrazine-2-carboxylic acid (2-{3-[2-(2-cyclopentyl-4,6-dioxo-tetrahydro-pyran-2-yl)-ethyl]-phenyl}-2-methyl-propyl)-amide] has an IC50 of 1200 nM.
`N#CCC(=O)c1ccc(CCC2(C3CCCC3)CC(=O)CC(=O)O2)cc1` (stereo not shown) [A(75), 3-{4-[2-(2-Cyclopentyl-4,6-dioxo-tetrahydro-pyran-2-yl)-ethyl]-phenyl}-3-oxo-propionitrile] gave an IC50 of 7100 nM.
`CC1(C)COc2ccc(CCC3(C4CCCC4)CC(=O)CC(=O)O3)cc21` (stereo not shown) [A(76), 6-Cyclopentyl-6-[2-(3,3-dimethyl-2,3-dihydro-benzofuran-5-yl)-ethyl]-dihydro-pyran-2,4-dione] showed an IC50 of 5800 nM.
For `O=C1CC(=O)OC(CCc2ccc(Cc3nccs3)c(F)c2)(C2CCCC2)C1` (stereo not shown) [A(77), 6-Cyclopentyl-6-[2-(3-fluoro-4-thiazol-2-ylmethyl-phenyl)-ethyl]-dihydro-pyran-2,4-dione], the IC50 was 24000 nM.
Work on `O=C1CC(=O)OC(CCc2cccc(Cc3nccs3)c2)(C2CCCC2)C1` (stereo not shown) [A(78), 6-Cyclopentyl-6-[2-(3-thiazol-2-ylmethyl-phenyl)-ethyl]-dihydro-pyran-2,4-dione] yielded an IC50 of 21000 nM.
In the case of `O=C1CC(=O)OC(CCc2ccc(CCO)cc2)(C2CCCC2)C1` (stereo not shown) [A(79), 6-Cyclopentyl-6-{2-[4-(2-hydroxy-ethyl)-phenyl]-ethyl}-dihydro-pyran-2,4-dione], the IC50 is reported as 1000 nM.
Molecule `O=C1CC(=O)OC(CCc2cccc(CCO)c2)(C2CCCC2)C1` (stereo not shown) [A(80), 6-Cyclopentyl-6-{2-[3-(2-hydroxy-ethyl)-phenyl]-ethyl}-dihydro-pyran-2,4-dione] has an IC50 of 20000 nM.
Molecule `CCC(CC)Oc1ccc(CCC2(C3CCCC3)CC(=O)CC(=O)O2)cc1Cl` (stereo not shown) [A(83), 6-{2-[3-Chloro-4-(1-ethyl-propoxy)-phenyl]-ethyl}-6-cyclopentyl-dihydro-pyran-2,4-dione] has an IC50 of 5400 nM.
`CC(=O)c1ccc(CCC2(C3CCCC3)CC(=O)CC(=O)O2)s1` (stereo not shown) [A(84), 6-[2-(5-Acetyl-thiophen-2-yl)-ethyl]-6-cyclopentyl-dihydro-pyran-2,4-dione] showed an IC50 of 6800 nM.
Work on `CNS(=O)(=O)c1ccc(CCC2(C3CCCC3)CC(=O)CC(=O)O2)cc1F` (stereo not shown) [A(85), 4-[2-(2-Cyclopentyl-4,6-dioxo-tetrahydro-pyran-2-yl)-ethyl]-2-fluoro-methyl-benzenesulfonamide] yielded an IC50 of 12400 nM.
In the case of `N#CC1(c2ccc(CCC3(C4CCCC4)CC(=O)CC(=O)O3)cc2F)CC1` (stereo not shown) [A(86), 1-{4-[2-(2-Cyclopentyl-4,6-dioxo-tetrahydro-pyran-2-yl)-ethyl]-2-fluoro-phenyl}-cyclopropanecarbonitrile], the IC50 is reported as 400 nM.
`CCc1cc(CCC2(C3CCCC3)CC(=O)CC(=O)O2)ccc1N(C)S(C)(=O)=O` (stereo not shown) [A(87)] gave an IC50 of 890 nM.
In the case of `CN(c1ccc(CCC2(C3CCCC3)CC(=O)CC(=O)O2)cc1)S(C)(=O)=O` (stereo not shown) [A(88), N-{4-[2-(2-cyclopentyl-4,6-dioxotetrahydro-2H-pyran-2-yl)ethyl]phenyl}-N-methylmethanesulfonamide], the IC50 is reported as 2300 nM.
`O=C1CC(=O)OC(CCc2ccc(O)c(C3CCCC3)c2)(C2CCCC2)C1` (stereo not shown) [A(89), 6-cyclopentyl-6-[2-(3-cyclopentyl-4-hydroxyphenyl)ethyl]dihydro-2H-pyran-2,4(3H)-dione] showed an IC50 of 2800 nM.
With `CCCc1cc(CCC2(C3CCCC3)CC(=O)CC(=O)O2)ccc1O` (stereo not shown) [A(90), 6-cyclopentyl-6-[2-(4-hydroxy-3-propylphenyl)ethyl]dihydro-2H-pyran-2,4(3H)-dione] the IC50 was 770 nM.
`CCC(C#N)(CC)c1ccc(CCC2(C3CCCC3)CC(=O)CC(=O)O2)cc1F` (stereo not shown) [A(91), 2-{4-[2-(2-Cyclopentyl-4,6-dioxo-tetrahydro-pyran-2-yl)-ethyl]-2-fluoro-phenyl}-2-ethyl-butyronitrile] gave an IC50 of 500 nM.
In the case of `N#CC1(c2ccc(CCC3(C4CCCC4)CC(=O)CC(=O)O3)cc2F)CCC1` (stereo not shown) [A(92), 1-{4-[2-(2-Cyclopentyl-4,6-dioxo-tetrahydro-pyran-2-yl)-ethyl]-2-fluoro-phenyl}-cyclobutanecarbonitrile], the IC50 is reported as 1000 nM.
`CC(C)c1cc(CCC2(C3CCCC3)CC(=O)CC(=O)O2)ccc1O` (stereo not shown) [A(93), 6-Cyclopentyl-6-[2-(4-hydroxy-3-isopropyl-phenyl)-ethyl]-dihydro-pyran-2,4-dione] was tested, and the IC50 was 700 nM.
Molecule `CC(=O)Oc1ccc(CCC2(C3CCCC3)CC(=O)CC(=O)O2)cc1C(C)C` (stereo not shown) [A(94), Acetic acid 4-[2-(2-cyclopentyl-4,6-dioxo-tetrahydro-pyran-2-yl)-ethyl]-2-isopropyl-phenyl ester] has an IC50 of 4000 nM.
`O=C1CC(=O)OC(CCc2ccc(O)c(Cl)c2)(C2CCCC2)C1` (stereo not shown) [A(95), 6-[2-(3-Chloro-4-hydroxy-phenyl)-ethyl]-6-cyclopentyl-dihydro-pyran-2,4-dione] gave an IC50 of 2100 nM.
`CCc1cc(CCC2(C3CCCC3)CC(=O)CC(=O)O2)ccc1OC` (stereo not shown) [A(96), 6-Cyclopentyl-6-[2-(3-ethyl-4-methoxy-phenyl)-ethyl]-dihydro-pyran-2,4-dione] gave an IC50 of 3200 nM.
Molecule `CCc1nc(C)c(CC2=C(O)CC(CCc3ccc(C(C)(C)C#N)c(F)c3)(C3CCCC3)OC2=O)[nH]1` (stereo not shown) [A(97), 2-[4-(2-{2-cyclopentyl-5-[(2-ethyl-4-methyl-1H-imidazol-5-yl)methyl]-4-hydroxy-6-oxo-3,6-dihydro-2H-pyran-2-yl}ethyl)-2-fluorophenyl]-2-methylpropanenitrile] has an IC50 of 290 nM.
Work on `Cn1c(CC2=C(O)CC(CCc3ccc(C(C)(C)C#N)c(F)c3)(C3CCCC3)OC2=O)nc2cc(Cl)ccc21` (stereo not shown) [A(98), 2-[4-(2-{5-[(5-chloro-1-methyl-1H-benzimidazol-2-yl)methyl]-2-cyclopentyl-4-hydroxy-6-oxo-3,6-dihydro-2H-pyran-2-yl}ethyl)-2-fluorophenyl]-2-methylpropanenitrile] yielded an IC50 of 10 nM.
For `CC(C)(C#N)c1ccc(CCC2(C3CCCC3)CC(O)=C(Cc3cc[nH]c(=O)c3)C(=O)O2)cc1F` (stereo not shown) [A(99), 2-[4-(2-{2-cyclopentyl-4-hydroxy-6-oxo-5-[(2-oxo-1,2-dihydropyridin-4-yl)methyl]-3,6-dihydro-2H-pyran-2-yl}ethyl)-2-fluorophenyl]-2-methylpropanenitrile], the IC50 was 17 nM.
